Reference: ChEMBL document CHEMBL1131354 (Bioorg Med Chem Lett, 1998)

The compounds below were run against T1, Melatonin receptor type 1B (Gallus gallus, UniProt P51050) (assay: Binding affinity measured against Chicken brain melatonin receptor by using 2-[125I]iodomelatonin as radioligand).
T1 sequence (P51050 whole entry): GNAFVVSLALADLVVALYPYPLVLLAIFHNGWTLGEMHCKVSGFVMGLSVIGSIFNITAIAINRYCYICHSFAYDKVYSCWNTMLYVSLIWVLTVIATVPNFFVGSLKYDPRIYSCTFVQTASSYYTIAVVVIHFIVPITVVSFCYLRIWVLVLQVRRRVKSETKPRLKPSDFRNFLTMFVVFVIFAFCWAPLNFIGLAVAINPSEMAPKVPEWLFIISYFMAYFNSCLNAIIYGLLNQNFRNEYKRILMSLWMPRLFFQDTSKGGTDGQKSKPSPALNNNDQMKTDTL

Ki | SMILES
0.45 nM | CCC(=O)NCC1CCCc2ccc(OC)cc21 (single isomer, unassigned; (+))
0.53 nM | CCC(=O)NCC1CCCc2ccc(OC)cc21 (racemic)
224 nM | COc1ccc2c(c1)C(CNC(C)=O)C2 (configuration not stated)
> 1000 nM | CCC(=O)NCC1CCCc2ccc(OC)cc21 (single isomer, unassigned; (-))
456 nM | CCC(=O)NCC1CCc2ccc(OC)cc21 (single isomer, unassigned; (-))
16 nM | CCC(=O)NCC1CCc2ccc(OC)cc21 (racemic)
49 nM | CCCC(=O)NCC1Cc2ccc(OC)cc21 (configuration not stated)
40 nM | CCC(=O)NCC1Cc2ccc(OC)cc21 (configuration not stated)
3 nM | CCC(=O)NCC1CCc2ccc(OC)cc21 (single isomer, unassigned; (+))

More lines, now with the values behind:

SMILES | Ki
COc1ccc2c(c1)C(CNC(C)=O)CCC2 (configuration not stated) | 4 nM
CCCC(=O)NCC1CCCc2ccc(OC)cc21 (configuration not stated) | 0.45 nM
CCCC(=O)NCC1CCCCc2ccc(OC)cc21 (configuration not stated) | 1 nM
CCCC(=O)NCC1CCc2ccc(OC)cc21 (configuration not stated) | 7.6 nM
COc1ccc2c(c1)C(CNC(C)=O)CCCC2 (configuration not stated) | 34 nM
COc1cccc2c1CC(NC(C)=O)CC2 (configuration not stated) | 161 nM
COc1ccc2c(c1)C(CNC(C)=O)CC2 (configuration not stated) | 77 nM
CCC(=O)NCC1CCCCc2ccc(OC)cc21 (configuration not stated) | 29 nM
